Experimental data published in patent US10004701B2, “Methods and compositions for treating infection” (UNIVERSITY OF ROCHESTER, priority 2012, dated 2018).
Where a name gives a salt, the structure may show the parent alone. Read-outs that look alike come from different tables or passages of the source.

Legend:
Assay in all cases: AK assay 384-well format, Prestwick library screening
E. faecium = type: cell-based, Enterococcus faecium; conditions: Enterococcus faecium, 3 h
[1] = test system: S. aureus strain USA300-0114; type: cell-based, Staphylococcus aureus; conditions: Staphylococcus aureus, USA300, 3 h
K. pneumoniae = type: cell-based, Klebsiella pneumoniae; conditions: Klebsiella pneumoniae, 3 h
[2] = test system: A. baumannii strain 98-37-09; type: cell-based, Acinetobacter baumannii; conditions: Acinetobacter baumannii, 983709, 3 h
P. aeruginosa = type: cell-based, Pseudomonas aeruginosa; conditions: Pseudomonas aeruginosa, 3 h
E. cloacae = type: cell-based, Enterobacter cloacae; conditions: Enterobacter cloacae, 3 h
E. coli = type: cell-based, Escherichia coli; conditions: Escherichia coli, 3 h

## CN1C(=O)CC(c2ccccc2)C1=O (stereo not shown) [Phensuximide]
E. faecium; planktonic E. faecium, 50 μM final drug concentration, […], read-out: AK-based Prestwick library screening result, E. faecium (fold increase in extracellular AK activity)
  fold induction at 50 µM: 0.9
[1]; planktonic S. aureus, 50 μM final drug concentration, […], read-out: AK-based Prestwick library screening result, S. aureus (fold increase in extracellular AK activity)
  fold induction at 50 µM: 0.7
K. pneumoniae; planktonic K. pneumoniae, 50 μM final drug concentration, […], read-out: AK-based Prestwick library screening result, K. pneumoniae (fold increase in extracellular AK activity)
  fold induction at 50 µM: 0.8
[2]; planktonic A. baumannii, 50 μM final drug concentration, […], read-out: AK-based Prestwick library screening result, A. baumannii (fold increase in extracellular AK activity)
  fold induction at 50 µM: 0.8
P. aeruginosa; planktonic P. aeruginosa, 50 μM final drug concentration, […], read-out: AK-based Prestwick library screening result, P. aeruginosa (fold increase in extracellular AK activity)
  fold induction at 50 µM: 0.7
E. cloacae; planktonic E. cloacae, 50 μM final drug concentration, […], read-out: AK-based Prestwick library screening result, E. cloacae (fold increase in extracellular AK activity)
  fold induction at 50 µM: 1.1
E. coli; planktonic E. coli, 50 μM final drug concentration, […], read-out: AK-based Prestwick library screening result, E. coli (fold increase in extracellular AK activity)
  fold induction at 50 µM: 1

## Cc1ccc(N(CC2=NCCN2)c2cccc(O)c2)cc1 [Phentolamine hydrochloride]
E. faecium; planktonic E. faecium, 50 μM final drug concentration, 384-well, cutoff for positive-scoring molecules 3-fold increase, read-out: AK-based Prestwick Library Screening Results: E. faecium (increase in extracellular AK activity)
  fold induction at 50 µM: 1
[1]; planktonic S. aureus, 50 μM final drug concentration, 384-well, cutoff for positive-scoring molecules 3-fold increase, read-out: AK-based Prestwick Library Screening Results: S. aureus (increase in extracellular AK activity)
  fold induction at 50 µM: 1.1
K. pneumoniae; planktonic K. pneumoniae, 50 μM final drug concentration, 384-well, cutoff for positive-scoring molecules 3-fold increase, read-out: AK-based Prestwick Library Screening Results: K. pneumoniae (increase in extracellular AK activity)
  fold induction at 50 µM: 1.1
[2]; planktonic A. baumannii, 50 μM final drug concentration, 384-well, cutoff for positive-scoring molecules 3-fold increase, read-out: AK-based Prestwick Library Screening Results: A. baumannii (increase in extracellular AK activity)
  fold induction at 50 µM: 1.4
P. aeruginosa; planktonic P. aeruginosa, 50 μM final drug concentration, 384-well, cutoff for positive-scoring molecules 3-fold increase, read-out: AK-based Prestwick Library Screening Results: P. aeruginosa (increase in extracellular AK activity)
  fold induction at 50 µM: 1.2
E. cloacae; planktonic E. cloacae, 50 μM final drug concentration, 384-well, cutoff for positive-scoring molecules 3-fold increase, read-out: AK-based Prestwick Library Screening Results: E. cloacae (increase in extracellular AK activity)
  fold induction at 50 µM: 1.2
E. coli; planktonic E. coli, 50 μM final drug concentration, 384-well, cutoff for positive-scoring molecules 3-fold increase, read-out: AK-based Prestwick Library Screening Results: E. coli (increase in extracellular AK activity)
  fold induction at 50 µM: 1.4

## CC(N)C(O)c1ccccc1 (stereo not shown) [Phenylpropanolamine hydrochloride]
E. faecium; read-out: AK-based Prestwick Library Screening Results: E. faecium (increase in extracellular AK activity)
  fold induction at 50 µM: 0.8
[1]; read-out: AK-based Prestwick Library Screening Results: S. aureus (increase in extracellular AK activity)
  fold induction at 50 µM: 0.3
K. pneumoniae; read-out: AK-based Prestwick Library Screening Results: K. pneumoniae (increase in extracellular AK activity)
  fold induction at 50 µM: 0.5
[2]; read-out: AK-based Prestwick Library Screening Results: A. baumannii (increase in extracellular AK activity)
  fold induction at 50 µM: 0.4
P. aeruginosa; read-out: AK-based Prestwick Library Screening Results: P. aeruginosa (increase in extracellular AK activity)
  fold induction at 50 µM: 0.4
E. cloacae; read-out: AK-based Prestwick Library Screening Results: E. cloacae (increase in extracellular AK activity)
  fold induction at 50 µM: 0.4
E. coli; read-out: AK-based Prestwick Library Screening Results: E. coli (increase in extracellular AK activity)
  fold induction at 50 µM: 0.5

## O=C(O)c1ccccc1C(=O)Nc1ccc(S(=O)(=O)Nc2nccs2)cc1 [Phthalylsulfathiazole]
E. faecium; 50 μM final drug concentration, cutoff for positive-scoring molecules 3-fold increase, read-out: AK-based Prestwick Library Screening Results, E. faecium (fold increase in extracellular AK activity)
  fold induction at 50 µM: 1
[1]; 50 μM final drug concentration, cutoff for positive-scoring molecules 3-fold increase, read-out: AK-based Prestwick Library Screening Results, S. aureus (fold increase in extracellular AK activity)
  fold induction at 50 µM: 1.4
K. pneumoniae; 50 μM final drug concentration, cutoff for positive-scoring molecules 3-fold increase, read-out: AK-based Prestwick Library Screening Results, K. pneumoniae (fold increase in extracellular AK activity)
  fold induction at 50 µM: 1
[2]; 50 μM final drug concentration, cutoff for positive-scoring molecules 3-fold increase, read-out: AK-based Prestwick Library Screening Results, A. baumannii (fold increase in extracellular AK activity)
  fold induction at 50 µM: 1.4
P. aeruginosa; 50 μM final drug concentration, cutoff for positive-scoring molecules 3-fold increase, read-out: AK-based Prestwick Library Screening Results, P. aeruginosa (fold increase in extracellular AK activity)
  fold induction at 50 µM: 1
E. cloacae; 50 μM final drug concentration, cutoff for positive-scoring molecules 3-fold increase, read-out: AK-based Prestwick Library Screening Results, E. cloacae (fold increase in extracellular AK activity)
  fold induction at 50 µM: 1.2
E. coli; 50 μM final drug concentration, cutoff for positive-scoring molecules 3-fold increase, read-out: AK-based Prestwick Library Screening Results, E. coli (fold increase in extracellular AK activity)
  fold induction at 50 µM: 1.4

## COc1ccc(C(=O)NCc2cccnc2)cc1C(=O)NCc1cccnc1 [Picotamide monohydrate]
E. faecium; 50 μM final drug concentration, 384-well format, cutoff for positive-scoring molecules 3-fold increase, read-out: AK-based Prestwick Library Screening Results, E. faecium (increase in extracellular AK activity)
  fold induction at 50 µM: 0.9
[1]; 50 μM final drug concentration, 384-well format, cutoff for positive-scoring molecules 3-fold increase, read-out: AK-based Prestwick Library Screening Results, S. aureus (increase in extracellular AK activity)
  fold induction at 50 µM: 0.7
K. pneumoniae; 50 μM final drug concentration, 384-well format, cutoff for positive-scoring molecules 3-fold increase, read-out: AK-based Prestwick Library Screening Results, K. pneumoniae (increase in extracellular AK activity)
  fold induction at 50 µM: 0.8
[2]; 50 μM final drug concentration, 384-well format, cutoff for positive-scoring molecules 3-fold increase, read-out: AK-based Prestwick Library Screening Results, A. baumannii (increase in extracellular AK activity)
  fold induction at 50 µM: 0.9
P. aeruginosa; 50 μM final drug concentration, 384-well format, cutoff for positive-scoring molecules 3-fold increase, read-out: AK-based Prestwick Library Screening Results, P. aeruginosa (increase in extracellular AK activity)
  fold induction at 50 µM: 0.8
E. cloacae; 50 μM final drug concentration, 384-well format, cutoff for positive-scoring molecules 3-fold increase, read-out: AK-based Prestwick Library Screening Results, E. cloacae (increase in extracellular AK activity)
  fold induction at 50 µM: 1.2
E. coli; 50 μM final drug concentration, 384-well format, cutoff for positive-scoring molecules 3-fold increase, read-out: AK-based Prestwick Library Screening Results, E. coli (increase in extracellular AK activity)
  fold induction at 50 µM: 0.9

## C=C(C)[C@@H]1[C@H]2OC(=O)[C@@H]1[C@]1(O)C[C@H]3O[C@]34C(=O)O[C@H]2[C@]14C [Picrotoxinin]
E. faecium; 50 μM final drug concentration, planktonic, […], read-out: AK-based Prestwick Library Screening Results, E. faecium (fold increase in extracellular AK activity)
  fold induction at 50 µM: 1
[1]; 50 μM final drug concentration, planktonic, […], read-out: AK-based Prestwick Library Screening Results, S. aureus (fold increase in extracellular AK activity)
  fold induction at 50 µM: 0.6
K. pneumoniae; 50 μM final drug concentration, planktonic, […], read-out: AK-based Prestwick Library Screening Results, K. pneumoniae (fold increase in extracellular AK activity)
  fold induction at 50 µM: 0.6
[2]; 50 μM final drug concentration, planktonic, […], read-out: AK-based Prestwick Library Screening Results, A. baumannii (fold increase in extracellular AK activity)
  fold induction at 50 µM: 0.7
P. aeruginosa; 50 μM final drug concentration, planktonic, […], read-out: AK-based Prestwick Library Screening Results, P. aeruginosa (fold increase in extracellular AK activity)
  fold induction at 50 µM: 0.6
E. cloacae; 50 μM final drug concentration, planktonic, […], read-out: AK-based Prestwick Library Screening Results, E. cloacae (fold increase in extracellular AK activity)
  fold induction at 50 µM: 0.7
E. coli; 50 μM final drug concentration, planktonic, […], read-out: AK-based Prestwick Library Screening Results, E. coli (fold increase in extracellular AK activity)
  fold induction at 50 µM: 0.6

## CC[C@@H]1C(=O)OC[C@@H]1Cc1cncn1C [Pilocarpine nitrate]
E. faecium; 50 μM final drug concentration, planktonic, cutoff for positive 3-fold increase, read-out: AK-based Prestwick Library Screening Results, E. faecium (fold increase in extracellular AK activity)
  fold induction at 50 µM: 1.1
[1]; 50 μM final drug concentration, planktonic, cutoff for positive 3-fold increase, read-out: AK-based Prestwick Library Screening Results, S. aureus (fold increase in extracellular AK activity)
  fold induction at 50 µM: 1.3
K. pneumoniae; 50 μM final drug concentration, planktonic, cutoff for positive 3-fold increase, read-out: AK-based Prestwick Library Screening Results, K. pneumoniae (fold increase in extracellular AK activity)
  fold induction at 50 µM: 0.9
[2]; 50 μM final drug concentration, planktonic, cutoff for positive 3-fold increase, read-out: AK-based Prestwick Library Screening Results, A. baumannii (fold increase in extracellular AK activity)
  fold induction at 50 µM: 1
P. aeruginosa; 50 μM final drug concentration, planktonic, cutoff for positive 3-fold increase, read-out: AK-based Prestwick Library Screening Results, P. aeruginosa (fold increase in extracellular AK activity)
  fold induction at 50 µM: 1
E. cloacae; 50 μM final drug concentration, planktonic, cutoff for positive 3-fold increase, read-out: AK-based Prestwick Library Screening Results, E. cloacae (fold increase in extracellular AK activity)
  fold induction at 50 µM: 1.5
E. coli; 50 μM final drug concentration, planktonic, cutoff for positive 3-fold increase, read-out: AK-based Prestwick Library Screening Results, E. coli (fold increase in extracellular AK activity)
  fold induction at 50 µM: 1
